Source: patent US20040091985A1, “NAD phosphite oxidoreductase, a novel catalyst from bacteria for regeneration of NAD(P)H” (priority 2002, published 2004)
Several values for one entry are separate records, joined by “and”; a condition that tells them apart may be missing. Identical values can stand only once. Entries after “also recorded” stand apart in the source; their conditions may differ.

Legend:
PtxD [1] = target: T1, PtxD (Stutzerimonas stutzeri, UniProt O69054); format: biochemical, Pseudomonas stutzeri WM88; set-up: made in house
T1 sequence (O69054 1-336): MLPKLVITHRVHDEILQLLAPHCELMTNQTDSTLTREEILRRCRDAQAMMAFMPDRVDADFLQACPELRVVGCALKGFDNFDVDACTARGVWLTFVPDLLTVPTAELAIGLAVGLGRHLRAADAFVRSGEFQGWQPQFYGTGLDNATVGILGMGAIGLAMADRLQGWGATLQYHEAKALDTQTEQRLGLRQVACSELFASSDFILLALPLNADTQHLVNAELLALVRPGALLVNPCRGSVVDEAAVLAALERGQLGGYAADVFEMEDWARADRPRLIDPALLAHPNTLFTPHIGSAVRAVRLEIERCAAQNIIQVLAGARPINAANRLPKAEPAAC

PtxD [2] = target: T1, PtxD; assay: Initial rate studies of PtxD with NAD and phosphite, kinetic model fitting
PtxD [3] = target: T1, PtxD; format: biochemical, Pseudomonas stutzeri WM88; set-up: made in house; remark: listed apart in the source
PtxD [4] = target: T1, PtxD; format: biochemical, Pseudomonas stutzeri WM88; set-up: made in house; remark: listed apart in the source
PtxD [5] = target: T1, PtxD; assay: Initial rate studies of PtxD in the presence of products (NADH, phosphate) and dead end inhibitor sulfite; format: biochemical, Pseudomonas stutzeri WM88; set-up: made in house
PtxD [6] = target: T1, PtxD; format: biochemical, Pseudomonas stutzeri WM88; set-up: made in house; remark: listed apart in the source
PtxD/HLADH = format: biochemical
PtxD/LLDH = PtxD/LLDH (Stutzerimonas stutzeri, UniProt O69054); format: biochemical
FDH = conditions: read-out: Ki, inhibition of FDH; cited from earlier work
PtxD [7] = target: PtxD (Stutzerimonas stutzeri, UniProt O69054); format: biochemical

## Phosphite
PtxD [1]
  Activity, substrates: 100.00%
PtxD [2]
  Km: 53.1 µM and ~50 µM

## O=C(O)CN(CCN(CC(=O)O)CC(=O)O)CC(=O)O [EDTA]
PtxD [3]
  effect on enzyme activity: no effect

## O=NO [Nitrite]
PtxD [4]
  inhibitory activity on PtxD, in words: moderately inhibited

## O=C(O)[C@H](O)CO [D-Glycerate]
PtxD [4]
  inhibitory activity on PtxD, in words: moderately inhibited

## Nc1ncnc2c1ncn2[C@@H]1O[C@H](COP(=O)(O)OP(=O)(O)OC[C@H]2OC(O)[C@H](O)[C@@H]2O)[C@@H](O)[C@H]1O (stereo partly shown) [ADPR, ADP-ribose]
PtxD [4]
  inhibitory activity on PtxD, in words: weak enzyme inhibitors

## CC(C)CC(O)C(=O)O (racemic) [DL-Hydroxyisocaproate]
PtxD [4]
  inhibitory activity on PtxD, in words: moderately inhibited

## O=S(O)O [Sulfite]
PtxD [5]; Kii
  Ki: 4.97 µM and 1.15 µM
PtxD [5]; Kis with respect to NAD
  Ki: 10.8 ± 0.1 µM
PtxD [5]; Kis with respect to phosphite
  Ki: 16.1 ± 0.1 µM
PtxD [4]
  inhibitory activity on PtxD, in words: strong inhibitor

## O=C(O)O [bicarbonate]
PtxD [6]
  reduction of potential substrate by PtxD with NADH (reverse direction): unable to catalyze the reduction

## O=C(O)CN(CCOCCOCCN(CC(=O)O)CC(=O)O)CC(=O)O [EGTA]
PtxD [3]
  effect on enzyme activity: no effect

## O=C(O)C(O)CO (stereo not shown) [glycerate]
PtxD [6]
  reduction of potential substrate by PtxD with NADH (reverse direction): unable to catalyze the reduction

## NC(=O)c1ccc[n+]([C@@H]2O[C@H](COP(=O)([O-])OP(=O)(O)OC[C@H]3O[C@@H](n4cnc5c(N)ncnc54)[C@H](O)[C@@H]3O)[C@@H](O)[C@H]2O)c1 [NAD]
PtxD [5]; Ki, inhibition of PtxD
  Ki: 223 µM
PtxD/HLADH
  TN (NAD^+): 123
  TTN (NAD^+): 2000
PtxD [1]
  Activity, cofactors: 100.00%
PtxD/LLDH
  TN (NAD^+): 12
  TTN (NAD^+): 2000
FDH
  Ki: 150 µM
PtxD [7]
  total turnover numbers of NAD^+: up to 2000

## NCCP(=O)(O)O [Aminoethylphosphonate]
PtxD [6]
  reduction of potential substrate by PtxD with NADH (reverse direction): unable to catalyze the reduction

## NADH
PtxD [5]
  type of inhibition of PtxD: competitive inhibitor

## O=C(O)C(=O)CO [hydroxypyruvate]
PtxD [6]
  reduction of substrate by PtxD with NADH: 0.14 units/mg

## Nc1ncnc2c1ncn2[C@@H]1O[C@H](COP(=O)(O)OP(=O)(O)O)[C@@H](O)[C@H]1O [ADP]
PtxD [4]
  inhibitory activity on PtxD, in words: weak enzyme inhibitors

## Nc1ncnc2c1ncn2[C@@H]1O[C@H](COP(=O)(O)OP(=O)(O)OP(=O)(O)O)[C@@H](O)[C@H]1O [ATP]
PtxD [4]
  inhibitory activity on PtxD, in words: weak enzyme inhibitors

## Arsenite
PtxD [4]
  inhibitory activity on PtxD, in words: moderately inhibited

## Nc1ncnc2c1ncn2[C@@H]1O[C@H](COP(=O)(O)O)[C@@H](O)[C@H]1O [AMP]
PtxD [4]
  inhibitory activity on PtxD, in words: does not inhibit

## [Cl-].[Na+] [NaCl]
PtxD [3]
  activity left: 37%

## arsenate
PtxD [6]
  reduction of potential substrate by PtxD with NADH (reverse direction): unable to catalyze the reduction

## NC(=O)c1ccc[n+]([C@@H]2O[C@H](COP(=O)([O-])OP(=O)(O)OC[C@H]3O[C@@H](n4cnc5c(N)ncnc54)[C@H](OP(=O)(O)O)[C@@H]3O)[C@@H](O)[C@H]2O)c1 [NADP]
PtxD [1]
  Activity, cofactors: 3.4% and 7.1% and 0.4% and 1.1%
  ability to substitute for NAD: able to substitute for NAD; also recorded: can substitute for NAD
PtxD [4]
  inhibitory activity on PtxD, in words: weak enzyme inhibitors
